This is an account of results in US20110028447A1, “INDAZOLE DERIVATIVES” (Pfizer Inc., priority 2008, published 2011).

Molecules are shown by their SMILES.

The target in the first experiment is human CB1 receptor (Homo sapiens, UniProt P21554). Description: Human CB1 receptor binding, [3H] CP-55,940 displacement on HEK cell membranes. Also on record: expressed in transfected cells; host or cells: HEK cells, doxycycline-induced; membrane preparation. Conditions: CB1 Ki. The essentials: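 Radioligand displacement: [3H] CP-55,940 at […] final, 1 μg membrane protein per well from HEK cells with tetracycline-inducible human CB1, 60 min at room temperature, pH 7.4 Tris/NaCl/MgCl2/EGTA/BSA buffer. 50 μM WIN-55,212-2 set nonspecific binding; bound label filtered, counted, and fitted for EC50 and Ki values.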
human CB1 receptor, sequence (P21554 whole entry): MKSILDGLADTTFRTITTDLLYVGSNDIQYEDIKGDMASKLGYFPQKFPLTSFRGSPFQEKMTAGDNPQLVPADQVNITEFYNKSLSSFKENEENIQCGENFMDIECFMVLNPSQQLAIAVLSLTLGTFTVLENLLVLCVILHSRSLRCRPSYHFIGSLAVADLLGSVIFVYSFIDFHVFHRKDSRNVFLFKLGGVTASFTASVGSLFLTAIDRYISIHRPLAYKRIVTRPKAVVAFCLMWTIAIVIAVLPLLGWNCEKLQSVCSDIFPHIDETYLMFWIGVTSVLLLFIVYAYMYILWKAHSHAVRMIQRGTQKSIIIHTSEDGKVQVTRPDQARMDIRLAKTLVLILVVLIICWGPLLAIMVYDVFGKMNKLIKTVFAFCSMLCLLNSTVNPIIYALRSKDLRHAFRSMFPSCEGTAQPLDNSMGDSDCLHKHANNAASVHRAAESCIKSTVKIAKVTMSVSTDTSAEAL
A word on the Ki: it is a measure of affinity in units of concentration, obtained from inhibition or displacement. As to `CC(C)(C)[C@H](NC(=O)c1nn(Cc2ccc(C#N)cc2F)c2c(F)cccc12)C(=O)NCCS(C)(=O)=O` [Example 370], the affinity, expressed as Ki, was 132 nM.
The same measure, in the same setting: in the case of `CC(C)(C)[C@H](NC(=O)c1nn(Cc2ccc(C#N)cc2)c2c(F)cccc12)C(=O)NCCS(N)(=O)=O` [Example 222] it was 21.4 nM; in that of `CC(C)(C)[C@H](NC(=O)c1nn(Cc2ccc(C#N)cc2F)c2c(F)cccc12)C(=O)NCC(N)=O` [Example 369], 28.1 nM.
Compound `CC(C)(C)[C@H](NC(=O)c1nn(Cc2ccc(F)cc2)c2ccccc12)C(=O)N[C@H]1CCC[C@H]1O` [Example 280] gave an inhibition constant Ki of 176 nM.
Still for that read-out and setting: in the case of `CC(C)(C)[C@H](NC(=O)c1nn(Cc2ccc(C#N)cc2)c2cc(F)ccc12)C(=O)NC[C@H](O)CO` [Example 298] it was 182 nM; in that of `CC(C)(C)[C@H](NC(=O)c1nn(Cc2ccc(C#N)cc2)c2ccccc12)C(=O)NC[C@@H](O)C(N)=O` [Example 283], more than 400 nM; in that of `COc1cc(C#N)ccc1Cn1nc(C(=O)N[C@H](C(=O)NCC(N)=O)C(C)(C)C)c2ccccc21` [Example 388], more than 400 nM.
Compound `CC(C)(C)[C@H](NC(=O)c1nn(Cc2ccc(C#N)cc2)c2ccc(Cl)cc12)C(=O)NCCO` [Example 447] returned a Ki of 170 nM.
The compound `CC(C)(C)[C@H](NC(=O)c1nn(Cc2cccc3ccccc23)c2ccccc12)C(=O)NC[C@H](O)CO` [Example 276] gave a Ki of more than 400 nM.
The same measure, in the same setting: the same measure for `CC(C)NC(=O)[C@@H](NC(=O)c1nn(Cc2ccc(C#N)cc2)c2ccccc12)C(C)(C)C` [Example 405]: 48.1 nM; for `CC(C)(C)[C@H](NC(=O)c1nn(Cc2ccc(C#N)cc2)c2c(F)cccc12)C(=O)NC[C@H]1C[C@@H]1CO` [Example 486]: 43.9 nM; for `CC(C)(C)[C@H](NC(=O)c1nn(Cc2ccc(F)cc2)c2ccc(Cl)cc12)C(=O)NCC1CC1` [Example 439]: 3.26 nM.
On the same count and under the same terms, in the case of `COc1cc(C#N)ccc1Cn1nc(C(=O)N[C@H](C(=O)NCCS(C)(=O)=O)C(C)(C)C)c2ccccc21` [Example 392] it was more than 400 nM; in that of `CC(C)(C)[C@H](NC(=O)c1nn(Cc2ccc(C#N)cc2)c2c(F)cccc12)C(=O)NCCS(C)(=O)=O` [Example 221], 87.5 nM; in that of `CC(C)NC(=O)[C@@H](NC(=O)c1nn(Cc2ccc(C#N)cc2)c2ccc(Cl)cc12)C(C)(C)C` [Example 450], 241 nM.
On the same count and under the same terms, in the case of `CC(C)(C)[C@H](NC(=O)c1nn(Cc2ccc(C#N)cc2)c2cc(F)ccc12)C(=O)NC[C@@H](O)CO` [Example 297] it was 124 nM.

The experiment is the same for the next values; noted with them: read-out: CB1 Ki.
Regarding `Cc1cc(O)nc(NCCNC(=O)[C@@H](NC(=O)c2nn(Cc3ccc(F)cc3)c3ccccc23)C(C)(C)C)n1` [Example 481], the inhibition constant (Ki) turned out to be 52.6 nM.
On to `CCN(CC)C[C@@H](O)CNC(=O)[C@@H](NC(=O)c1nn(Cc2ccc(F)cc2)c2ccccc12)C(C)(C)C` [Example 505], for which the Ki is 301 nM.
For the compound `CC(C)(C)[C@H](NC(=O)c1nn(Cc2ccc(C#N)cc2)c2c(F)cccc12)C(=O)N[C@H]1CCc2ccccc21` [Example 287], the Ki is more than 400 nM.
Same read-out and setting: in the case of `CC(C)(C)[C@H](NC(=O)c1nn(Cc2ccc(F)cc2)c2c(F)cccc12)C(=O)NCCN1CCNC(=O)C1` [Example 474] it was 41.2 nM; in that of `Cc1cc(O)nc(CNC(=O)[C@@H](NC(=O)c2nn(Cc3ccc(C#N)cc3)c3ccccc23)C(C)(C)C)n1` [Example 350], 229 nM; in that of `CCOC(=O)c1ccc(Cn2nc(C(=O)N[C@H](C(=O)NCCO)C(C)(C)C)c3ccccc32)c(F)c1` [Example 484], more than 400 nM.
On the same count and under the same terms, in the case of `COc1cc(CNC(=O)[C@@H](NC(=O)c2nn(Cc3ccc(C#N)cc3)c3c(F)cccc23)C(C)(C)C)on1` [Example 312] it was 178 nM; in that of `CC(C)(C)[C@H](NC(=O)c1nn(Cc2ccc(F)cc2)c2ccccc12)C(=O)NCCN1CCNC(=O)C1` [Example 467], 53.8 nM; in that of `CC(C)(C)[C@H](NC(=O)c1nn(Cc2ccc(F)cc2)c2ccccc12)C(=O)N1CCC(F)(C(N)=O)CC1` [Example 343], 216 nM.
